According to PMC8073230, “Development and Verification of a Precolumn Derivatization LC-MS/MS Method for the Pharmacokinetic Study of Houttuynine of Houttuynia Essential Oil” (Molecules, 2021):

Test: Pharmacokinetic study of Hou in rats after single administration of HEO (LC-MS/MS, non-compartmental model)
Format: in vivo, rat
Conditions: for AUC(0–t) / AUC(0–∞) / C max / T 1/2 / T max / V z: Hou in rat plasma after single administration of HEO; for AUC(0–t) / AUC(0–∞) / C max / T 1/2 / T max / V z / MRT(0–t): n = 6; for MRT(0–t): Hou in rat plasma after HEO
Experimental: The pharmacokinetics of HEO administrated to rat via gavage and injection were evaluated based on the determination of Hou blood concentration by the established LC-MS/MS approach. Furthermore, the parameters of the pharmacokinetics were calculated by a non-compartmental model using the Drug and Statistics Software (DAS), version 3.2.8.
Twelve male SD rats (200 ± 30 g) were kept in an appropriate environment for three days before the start of the experiment. Before drug administration, the rats were fasted except for free water access for 12 h. All animals were randomly divided into two groups with six animals in each group. Blood samples (0.2 mL) were withdrawn at specific time intervals (0 h, 5 min, 10 min, 15 min, 30 min, 1 h, 2 h, 3 h, 4 h, 6 h, 8 h, 12 h, and 24 h) after administration in heparinized tubes. The samples were immediately centrifuged at 3000 rpm, and kept at −20 °C in a refrigerator.
Plasma samples (100 μL) were mixed with 100 μL of DNPH (2 mg/mL), 50 μL of IS (PTD, 200 µg/mL), and 150 μL acetonitrile (containing 2% HCl) with uniform mixing, followed by vigorous vortexing for 3 min to precipitate the protein. Then, all samples were shaken in a water bath oscillator for 15 min at 45 °C. The solutions were then centrifuged. The centrifugation step was repeated once, and plasma samples of Hou were obtained and subjected to LC-MS/MS analysis.
Pharmacokinetic parameters including AUC (0–t), AUC (0–∞), MRT (0–t), MRT (0–∞), CLz and so on, were calculated using the DAS (version 3.2.8, Chinese Pharmacological Association, Beijing, China). The Cmax was obtained from the concentration–time curve. The area under the plasma concentration–time curve from zero to the time of the last measurable sample AUC (0–t)), area under the plasma concentration–time curve from zero to infinity AUC (0−∞), mean residence time from zero to the time of the last measurable sample (MRT0−t), mean residence time from zero to the time of infinity (MRT0−∞), and CLz were calculated using the DAS.

F (absolute bioavailability) (Hou after HEO, gavage (oral administration)): 7.08%
F (Hou after HEO, injection (reference route)): 100%
AUC(0–t) (gavage): 2451.79 ± 300.01 µg·h/L
AUC(0–∞) (gavage): 2451.837 ± 432.74 µg·h/L
C max (gavage): 222.48 ± 20.38 ng/mL
T 1/2 (gavage): 6.45 ± 0.94 h
T max (gavage): 3.71 ± 1.07 h
V z (gavage): 85.81 ± 5.74 L/kg
AUC(0–t) (injection): 32,693.2 ± 1320 μg/L × h
AUC(0–∞) (injection): 34,630.466 ± 1436 μg/L × h
C max (injection): 2010 ± 350 ng/mL
T 1/2 (injection): 5.987 ± 0.52 h
T max (injection): 0.033 ± 0.012 h
V z (injection): 5.611 ± 0.97 L/kg
maximum plasma concentration (Cmax) (Hou in rats after HEO, oral administration): 222.48 ng/mL
MRT(0–t) (first MRT line (r8), gavage): 8.914 ± 2.73 h
MRT(0–t) (first MRT line (r8), injection): 7.575 ± 1.21 h
MRT(0–t) (second MRT line (r9), gavage): 11.594 ± 1.85 h
MRT(0–t) (second MRT line (r9), injection): 9.153 ± 0.98 h
Substance: 3-oxo-dodecanal [Hou]
